According to paper PMC7663263 (Molecules, 2020):
Where two headings read alike, the source gives them in different places.

How the values were obtained:
O. ochengi microfilariae = O. ochengi microfilariae motility assay; assay type: cell-based, Onchocerca ochengi; conditions: 10 μM
Method: (§1) O. ochengi microfilariae assays: were collected from the hides of infected cattle and washed prior to adding 10–15 microfilariae to 96-well culture plates containing confluent monkey kidney epithelial cells in 100 μL of media. Microfilariae were run in duplicate and plates were maintained at 37 °C in a 5% CO2 incubator. Microfilariae viability was visually scored using percent reduction of motility using the same scoring criteria used for adult males. Scores were recorded every 24 h after addition of drugs for 5 days using an inverted microscope.

[1] = system: adult female B. pahangi worms; assay: Adult in vitro Brugia pahangi motility assay (Worminator); assay type: cell-based; conditions: for Inhibition of Motility (%) Day 1 / Inhibition of Motility (%) Day 2 / Inhibition of Motility (%) Day 3 / Inhibition of Motility (%) Day 6: female B. pahangi, n = 4 worms; for IC50: adult female Brugia pahangi, worminator motility assay, six-point serial dilution
Method: Adult in vitro Brugia pahangi assay: Adult female B. pahangi worms were kindly provided by Dr. Brenda Beerntsen, University of Missouri, Columbia, MO. Individual female worms were assayed in 500 μL of culture medium (RPMI-1640 with 25 mM HEPES, 2.0 g/L NaHCO3, 5% heat-inactivated FBS and antibiotic/antimycotic solution) in 24-well plates. Worms treated with 1% DMSO served as negative control and there were four replicates per compound. Worms were maintained at 37 °C in a 5% CO2 incubator for the duration of the assay. Individual worm movement was assessed from day 1–6 using the Worminator [55], which reports worm motility as mean movement units (MMU), a measure of pixels displaced. MMUs are then used to calculate percent inhibition of worm motility compared to control worms.

L. loa microfilariae = L. loa microfilariae motility assay; assay type: cell-based; conditions: 10 μM
Method: as §1
L. loa microfilariae assays: L. loa microfilariae were purified from the blood of infected individuals using a step-wise Percoll gradient (46% and 43% Percoll) followed by centrifugation at 400 rcf for 20 min. The microfilariae were recovered in the 43% layer then assayed using the same culture conditions and method as the O. ochengi microfilariae.

[2] = system: primary mouse macrophages (PMM); assay: in vitro
Method: Toxicity in human fetal lung fibroblast (MRC-5) cell line and primary mouse macrophages (PMM) was assessed using a previously reported assay in 96-well microtiter plates. Tamoxifen and miltefosine were included as reference drugs (Table 10).
For MRC5SV2 or PMM cells, the assays were performed in 96-well microtiter plates, each well containing 10 µL of compound dilution and 190 µL of cell inoculum (3 × 10^4 cells/mL) as reported. Cell growth was compared to untreated controls (100% growth) and assay-media controls (0% growth). After three-day incubation, cell viability was assessed fluorometrically by adding resazurin [50 µL/well of a stock solution in phosphate buffer (50 µg/mL)], incubating for 4 h and measuring fluorescence (ex 550 nm, em 590 nm). The results are expressed as percentage reduction in cell growth as compared to untreated control wells. […] Tamoxifen was included as the reference drug.

[3] = system: Leishmania donovani LV9 intramacrophage amastigotes; assay: L. donovani LV9 intramacrophage amastigotes; assay type: cell-based; conditions: read-out: Leishmania Donovani LV9 Intramacrophage Amastigotes IC50 (µm) ± SD
Method: (§2) In vitro anti-leishmanial evaluation was perfomed on both axenic and intramacrophage L. donovani amastigotes as previously described. […] Briefly, compounds were distributed in 96-well plates using 2-fold dilutions in 100 µL PYG medium. A. castellanii trophozoites were added to each well at 5 × 10^4 amoeba/mL in 200 µL final volume. L. donovani axenic amastigotes were added to each well at 10^6 parasites/mL in 200 µL final volume. After 72 h incubation at 27 °C, 20 µL of 1 mM resazurin was added to each well and further incubated at 27 °C for 8 h for A. castellanii and for 24 h for L. donovani axenic amastigotes. In living cells, resazurin is reduced in resorufin. This conversion is monitored by measuring the absorbance at specific wavelengths of resorufin (570 nm) and resazurin (600 nm) using a microplate reader (Labsystems Multiskan MS, McLean, VA, USA). In this assay, the activity was expressed in IC50. Miltefosine and pentamidine were used as reference drugs. All experiments were performed in three independent experiments.

Human TrxR = conditions: 30 nM enzyme, 20 µM substrate; after 10 min enzyme-NADPH-gold complex preincubation; read-out: IC50 Human TrxR, substrate hTrxC72S; cited from earlier work
RAW 264.7 macrophages = assay: Cytotoxicity on RAW 264.7 macrophages; assay type: cell-based, murine; conditions: 48 h incubation; read-out: Cytotoxicity on RAW 264.7 Macrophages CC50 (µM) ± SD
Method: Cytotoxicity was evaluated on RAW 264.7 macrophages that were maintained at 37 °C with 5% CO2 in Dulbecco’s Modified Eagle’s Medium (DMEM, Invitrogen, Toulouse, France) supplemented with 100 U/mL penicillin-streptomycin (Invitrogen) and 10% heat-inactivated fetal bovine serum, as previously described. Briefly, cells were plated in 96-well microplates at a density of 2 × 10^4 cells per well. After incubation for 24 h at 37 °C in 5% CO2, the medium was removed from each well and 100 µL of medium containing 2-fold serial dilutions of compounds was added to each well. After 48 h incubation at 37 °C in 5% CO2, 10 µL of 450 µM resazurin was added to each well and further incubated in the dark for 4 h. Cell viability was determined as described above. The cytotoxicity of the compounds was expressed as CC50.

[4] = system: Leishmania donovani LV9 axenic amastigotes; assay: L. donovani LV9 axenic amastigotes (resazurin); assay type: cell-based; conditions: read-out: Leishmania donovani LV9 Axenic Amastigotes IC50 (µM) ± SD
Method: as §2

For `CC(=O)OCC1OC([S][Au][PH]2(c3ccccc3)C(c3ccccn3)=CC=C2c2ccccn2)C(OC(C)=O)C(OC(C)=O)C1OC(C)=O` [GoPI-sugar, 1-thio-β-D-glucopyranose 2,3,4,6-tetraacetato-S-Au{1-phenyl-2,5-di(2-pyridyl)phosphole}], the “% Inhibition of Motility O. ochengi mf Day 5” value (O. ochengi microfilariae) was 100%, the “Inhibition of Motility (%) Day 1” value ([1]; 1 μM) was 20% and the “Inhibition of Motility (%) Day 2” value ([1]; 1 μM) was 16%. The “Inhibition of Motility (%) Day 3” value ([1]; 1 μM) was 22%, the “Inhibition of Motility (%) Day 6” value ([1]; 1 μM) was 48% and the “Inhibition of Motility (%) Day 1” value ([1]; 3 μM) was 24%. The “Inhibition of Motility (%) Day 2” value ([1]; 3 μM) was 41%, the “Inhibition of Motility (%) Day 3” value ([1]; 3 μM) was 40% and the “Inhibition of Motility (%) Day 6” value ([1]; 3 μM) was 96%. The “Inhibition of Motility (%) Day 1” value ([1]; 10 μM) was 91%, the “Inhibition of Motility (%) Day 2” value ([1]; 10 μM) was 98% and the “Inhibition of Motility (%) Day 3” value ([1]; 10 μM) was 100%. The “Inhibition of Motility (%) Day 6” value ([1]; 10 μM) was 99%, the IC50 ([1]; read-out: IC50 (µM) Day 2) was 2.8 µM and the IC50 ([1]; read-out: IC50 (µM) Day 3) was 3.9 µM. The IC50 ([1]; read-out: IC50 (µM) Day 6) was 1.7 µM, the “% Inhibition of Motility L. loa mf w/MK2 Cells Day 5” value (L. loa microfilariae) was 38% and the CC50 [2] was 8000 nM. The IC50 [3] was 420 ± 150 nM, the IC50 (Human TrxR) was 4.3 ± 1.6 nM and the CC50 (RAW 264.7 macrophages) was 4.35 ± 0.04 µM. It also gave an IC50 [4] of 1.45 ± 0.07 µM.
